Laboratory results from PubChem BioAssay AID1996.
In brackets after ≈: the same amount, converted by molar mass.

conditions: buffer; pH 7.4; 200.0 µM

solubility kinetic | Compound
> 47.9 µg/mL | CC1=C/C(=N\OS(=O)(=O)c2ccccc2)C(C(C)C)=CC1=O
3.2 µg/mL (≈ 8.22 µM) | CN1CC(=O)N2[C@H](c3ccc4c(c3)OCO4)c3[nH]c4ccccc4c3C[C@@H]2C1=O
2.3 µg/mL (≈ 6.71 µM) | O=C(CCNC(=O)c1ccc(Cl)cc1)Nc1nc2ccccc2[nH]1
> 45.8 µg/mL | CCOc1ccc(S(=O)(=O)NC(=O)c2ccccc2)cc1
< 0.3 µg/mL | CCCN(Cc1ccccc1)C(=S)Nc1cccc(C)c1C
40.5 µg/mL (≈ 136 µM) | COC(=O)c1sccc1NS(=O)(=O)c1ccccc1
> 41.9 µg/mL | O=CNCc1nc2ccccc2n1CCc1ccccc1
1.3 µg/mL (≈ 3.85 µM) | CCOc1ccc(-c2nc(N)ncc2-c2ccccc2OC)c(O)c1
> 58.7 µg/mL | CCN(CC)CCCN=Cc1c(O)n(-c2cccc(C)c2)c(=O)c2ccccc12
< 0.4 µg/mL | COc1cccc(/C=C2\SC(=S)N(c3cccnc3)C2=O)c1OC
16.8 µg/mL (≈ 48.5 µM) | C=CCNc1oc(-c2cccs2)nc1S(=O)(=O)c1ccccc1
26.2 µg/mL (≈ 101 µM) | CC12CN3CC(C)(CN(C1)C3c1ccc(F)cc1)C2 (stereo unspecified)
44 µg/mL (≈ 147 µM) | Cc1ccc(NC(=S)Nc2ccc3[nH]c(=O)[nH]c3c2)cc1
43.2 µg/mL (≈ 133 µM) | O=C(O)c1ccccc1C(=O)Nc1nc(-c2ccccc2)cs1
41.9 µg/mL (≈ 148 µM) | CCn1c(COc2ccccc2OC)nc2ccccc21
0.4 µg/mL (≈ 1.07 µM) | C=CCOn1c(=O)c(-c2ccc(Br)cc2)[n+]([O-])c2ccccc21
> 39.6 µg/mL | CCOc1ccc(Cn2cc(F)c(=O)[nH]c2=O)cc1

solubility kinetic | Compound
> 38.7 µg/mL | O=C1COCC(=O)N1CCc1c[nH]c2ccccc12
33.3 µg/mL (≈ 93.2 µM) | CC1CCCC(NC(=O)COC(=O)c2cc3ccccc3oc2=O)C1C (stereo unspecified)
> 49.3 µg/mL | CC(C)c1ccc(NC2CCCN(C(=O)c3ccsc3)C2)cc1 (stereo unspecified)
6.2 µg/mL (≈ 26.1 µM) | O=C(Nc1csc(Cl)c1)c1ccccc1
> 42.8 µg/mL | O=C(O)c1ccccc1C(=O)NCC(O)c1ccccc1 (stereo unspecified)
18.5 µg/mL (≈ 65.4 µM) | O=C(Nc1cccc2ncccc12)c1ccccc1Cl
0.4 µg/mL (≈ 1.11 µM) | Cn1c(SCc2ccccc2Br)nc2ccccc2c1=O
> 45.5 µg/mL | Cc1ccccc1S(=O)Cc1ccc(C(=O)NC2CC2)o1 (stereo unspecified)
21.2 µg/mL (≈ 73.4 µM) | O=C(Nc1cccc(Cl)c1)c1ccc2ncsc2c1
35.7 µg/mL (≈ 140 µM) | COC(=O)c1cccc(NC(=O)c2ccccc2)c1
> 47.9 µg/mL | O=C(CN1CCN(Cc2ccc(F)cc2)C1=O)NC1CCCC1
< 0.6 µg/mL | COC(=O)c1sccc1NC(=O)c1ccc(C)cc1
16.2 µg/mL (≈ 34.5 µM) | CC(Oc1cccc(Br)c1)C(=O)Nc1cccc(S(=O)(=O)N2CCOCC2)c1 (stereo unspecified)
< 0.7 µg/mL | Cc1ccc(C(=O)Nc2c(C)cc(-c3ccccc3)oc2=O)cc1
< 0.4 µg/mL | COc1ccc(/C=C2\SC(=N)N(c3ccc(F)cc3)C2=O)cc1
> 37.8 µg/mL | Cc1ccc(C(O)c2nc3ccccc3n2C)cc1 (stereo unspecified)

Continued, molecule first:

Compound | solubility kinetic
COc1ccc(C(=O)NCCNC(=O)c2cnccn2)cc1OC | > 49.6 µg/mL
Cc1ccnc(NCc2cc(C)ccc2O)c1 | 6 µg/mL (≈ 26.3 µM)
NS(=O)(=O)c1ccc(CNC(=S)NC2CCCCC2)cc1 | 47.9 µg/mL (≈ 146 µM)
Cc1ccc(N=Cc2ccc(N(C)C)cc2)cc1C | 20.3 µg/mL (≈ 80.4 µM)
CC(NCc1ccccc1O)C12CC3CC(CC(C3)C1)C2.Cl (stereo unspecified) | 41.9 µg/mL
N#C/C(=C\c1ccccc1O)C(=O)Nc1ccccn1 | 32.9 µg/mL (≈ 124 µM)
CC(C)OP(=O)(O)NC(=O)c1ccccc1 | > 36.5 µg/mL
COc1ccc(NC(=O)[C@@H]2CCCN2S(=O)(=O)c2ccc(Cl)cc2)cc1 | > 59.2 µg/mL
Cc1cccc(NC(=O)C[n+]2ccc(N(C)C)cc2)c1.[Cl-] | 45.9 µg/mL
CCCCC(=O)OCC(=O)c1[nH]c(C)c(C(C)=O)c1C | 36.9 µg/mL (≈ 132 µM)
CN(C(=O)c1ccccc1)c1nccnc1C#N | > 35.7 µg/mL
O=C(NCC(=O)N1CCCCCC1)c1ccc(Cl)cc1 | > 44.2 µg/mL
COC(=O)c1ccccc1NC(=O)c1onc(C)c1Cl | < 0.3 µg/mL
O=C(/C=C/c1ccc(Cl)cc1)NCCCn1ccnc1 | > 43.5 µg/mL
CCN(CC)S(=O)(=O)c1ccc(NCc2ccccn2)nc1 | > 48.1 µg/mL
CCOC(=O)CSc1nnc(CNC(=O)c2cccc(C)c2)n1C | > 52.3 µg/mL
N#Cc1ccc(C(=O)NC2=NCCS2)cc1 | 21.8 µg/mL (≈ 94.3 µM)
NS(=O)(=O)c1ccc(NC(=O)Nc2ccc(S(N)(=O)=O)cc2)cc1 | 9.7 µg/mL (≈ 26.2 µM)
CCCCOc1ccc(OCCNC(=O)c2ccco2)cc1 | 22.5 µg/mL (≈ 74.2 µM)
C=CCSc1nc2sc3c(c2c(=O)n1CC)CCC3 | 0.8 µg/mL (≈ 2.74 µM)
COC(=O)c1cc(S(=O)(=O)N(C)C2CCCCC2)c[nH]1 | > 45.1 µg/mL
CN(C)CC/C=C1/c2ccc(F)cc2Sc2ccc(Cl)cc21.Cl | 26.1 µg/mL
Cc1cc(C)c(C#N)c(Nc2ccccc2F)n1 | 5.1 µg/mL (≈ 21.1 µM)
O=C(COC(=O)COc1ccc(Cl)cc1)NC1CCCCCC1 | 8.1 µg/mL (≈ 23.8 µM)
COc1ccc(C(=O)CSc2nccn2C)cc1 | 35.1 µg/mL (≈ 134 µM)
c1ccc(CSc2nc3ncccn3n2)cc1 | > 36.3 µg/mL
Cc1cc(C)c(S(=O)(=O)c2ccc(F)cc2C)c(Cl)n1 | 36.8 µg/mL (≈ 117 µM)
Cc1cccc(OCCCN2CCOCC2)c1C | 25.4 µg/mL (≈ 102 µM)
